Assay in all cases: NCI tumour cell line growth inhibition, 48 h
Assay [1] concerns OVCAR-4 ovarian.
Assay [2] deals with CCRF-CEM leukemia.
Assay [3] concerns SF-539 CNS.
Assay [4] relates to OVCAR-3 ovarian.
Assay [5] concerns OVCAR-8 ovarian.
In assay [6] the test system is HCC-2998 colon.
The test system of assay [7] is SNB-75 CNS.
Assay [8] has as its system DU-145 prostate.
For assay [9], the system named is NCI/ADR-RES ovarian.
Assay [10] deals with MDA-MB-435.

SMILES strings stand for the structures.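 Briefly, cells in 96-well plates were exposed to five compound concentrations for 48 h, and endpoints were estimated by linear interpolation. Abbreviation: GI50, concentration required for 50% inhibition of growth. TGI is the concentration that stops growth completely.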

For `CC1=CCC2(C#N)CCC1C2=O` (stereo unspecified), the TGI in [1], in assay [2], in assay [3], in assay [4] and in assay [5] was greater than 100 µM in each case.

For the compound `CC(C)OCN1COCN=C1NC#N`, the TGI in assay [1], in [6], in assay [3], in [4], in [7] and in assay [5] was greater than 100 µM throughout.

Take `COc1ccc(C(=O)C(C(=O)C(=O)Nc2nc3ccc(OC)cc3s2)c2ccc(OC)cc2)cc1` (stereo unspecified): the TGI in assay [1], in [2], in assay [6], in [3], in assay [4] and in [7] was greater than 100 µM each time. Further, the TGI in assay [5] is greater than 100 µM.

In the case of `CCOC(=O)c1cc(C(=O)c2cc(OC)cc(OC)c2)n2ncccc12`, the GI50 in assay [1] was 17 µM; in [2] it was 2.51 µM; in [6] it was 14.7 µM; in [8] it was 3.96 µM; in assay [3] it was 1.85 µM; in [4], 0.402 µM. Also, the GI50 in assay [9] was 0.463 µM; in [7] it was 0.399 µM; in assay [5], 3.77 µM. The TGI in assay [1] was greater than 100 µM; in assay [2], greater than 100 µM; in [6] it was greater than 100 µM; in [8], greater than 100 µM; in [3], 40.2 µM; in assay [4], greater than 100 µM. The TGI in [9] is 61.1 µM; in assay [7] it was greater than 100 µM; in assay [5] it was greater than 100 µM.

Take `Cc1ccccc1NC(=O)C(=O)Cc1nc2ccccc2s1`: the TGI in [1], in assay [2], in [6], in assay [3], in [4] and in [7] was greater than 100 µM throughout. For the same compound, in [5], the TGI is greater than 100 µM.

As for `Nc1nc(N)c(-c2ccccc2)c(C(=O)Nc2ccc(Cl)c(Cl)c2)n1`, the TGI in [1], in [6], in assay [3], in assay [4], in assay [7] and in [5] was greater than 100 µM each time.

Take `O=C(O)/C(O)=C1/C=C(c2ccccc2)c2ccccc21`: the TGI in [1] came to 80.7 µM; in assay [2], 46.6 µM; in assay [6], 49.8 µM; in assay [3], 82.3 µM; in [7], 61.7 µM; in [5], 59.4 µM.

`C=C(CO)CC(O)c1ccccc1` (stereo unspecified): the TGI in [1], in assay [2], in assay [6], in [3], in assay [4] and in assay [7] was greater than 100 µM in each case. The TGI in [5] is greater than 100 µM.

Turning to `CC1CC2C3CC(F)C4=CC(=O)C=CC4(C)C3(F)C(O)CC2(C)C1(O)C(=O)CO` (stereo unspecified), the TGI in assay [1], in assay [2], in assay [6], in assay [3], in [4] and in assay [7] was greater than 100 µM in each case.

For the compound `COc1cc(C2C(C(=O)O)=C(C)Oc3cc4c(cc32)OCO4)cc(OC)c1OC` (stereo unspecified), the TGI in assay [1] was greater than 100 µM; in assay [2], greater than 100 µM; in [4] it was 48.1 µM; in assay [7], 53.1 µM; in [5], greater than 100 µM.

For the compound `CSc1s[s+]c(SC)c1[O-]`, the TGI in assay [1] was greater than 100 µM; in assay [2] it was greater than 100 µM; in [6] it was greater than 100 µM; in assay [3], 43.2 µM; in assay [4], 67.2 µM; in assay [7], greater than 100 µM. This compound also yielded a TGI in assay [5] of 43.7 µM.

Regarding `Cc1cccc(NC(=O)CC2C(=O)Nc3ccccc3S2(=O)=O)c1C` (stereo unspecified), the TGI was 32.1 µM in assay [1]; greater than 100 µM in assay [6]; 37.6 µM in [3]; 61.2 µM in assay [4]; 41.6 µM in assay [7]; 44.4 µM in assay [5].

On to `COCCN1C2=CCCCC2=Nc2c(N)nc(N)nc21`, for which the TGI in assay [2] was greater than 100 µM; in assay [6] it was greater than 100 µM; in assay [3], greater than 100 µM; in assay [4], 77.7 µM; in assay [7] it was greater than 100 µM; in [5], greater than 100 µM.

As to `COC(=O)C1CCc2c(OC)ccc(OC)c2C1=O` (stereo unspecified), the TGI in assay [1], in assay [2], in [6], in assay [3], in assay [4] and in assay [5] was greater than 100 µM each time.

Turning to `CNC(=O)OCc1nc(S(C)=O)n(C)c1COC(=O)NC` (stereo unspecified), the TGI was greater than 71.6 µM in assay [1]; greater than 100 µM in assay [2]; greater than 100 µM in [6]; greater than 100 µM in assay [3]; greater than 100 µM in assay [4]; greater than 100 µM in assay [9]. Moreover, the TGI in assay [7] and in [5] was greater than 100 µM each time.

Regarding `COc1ccc2cc(C(=O)/C=C/c3ccc(OC)c(OC)c3)ccc2c1`, the GI50 is 5.59 µM in assay [10]; 15.5 µM in assay [8]; 3.77 µM in assay [3]; 14.8 µM in assay [4]; 14 µM in assay [5]. Also, the TGI was 43.4 µM in assay [10]; 80.1 µM in assay [8]; 16.3 µM in assay [3]; greater than 100 µM in assay [4]; 49.7 µM in assay [5].

On to `C#C[C@]1(O)CC[C@H]2[C@@H]3CC=C4c5nc(Nc6ccc(OC)cc6OC)sc5CC[C@]4(C)[C@H]3CC[C@@]21C`, for which the GI50 in assay [1] is 4.44 µM; in [2], 0.544 µM; in [6], 2.17 µM; in [10] it was 1.76 µM; in assay [8], 2.32 µM; in assay [3], 0.374 µM. The GI50 in assay [4] is 1.58 µM; in assay [9], 2.36 µM; in assay [5] it was 3.2 µM. In addition, the TGI is greater than 100 µM in assay [1]; 11 µM in assay [2]; 5.59 µM in assay [6]; 4.39 µM in [10]; 10.8 µM in assay [8]; 1.7 µM in [3]. In addition, the TGI in assay [4] was 3.74 µM; in assay [9], 17 µM; in assay [5] it was greater than 100 µM.

Take `CCCCCCCCCCCCCCCCCC(=O)NCCCNCCCNC(=O)CCCCCCCCCCCCCCCCC`: the TGI in assay [1], in [2], in [6], in assay [4] and in [5] was greater than 100 µM throughout.

In the case of `CN/N=C(\C)CC(=O)Nc1cccc(Cl)c1C`, the TGI in assay [1], in assay [2], in assay [6], in assay [3], in [4] and in assay [7] was greater than 100 µM each time. In assay [5], this compound gave a TGI greater than 100 µM.

Consider `COC(=O)C(C(=O)C(=O)Nc1ccccc1OC)c1csc(-n2nc(-c3ccccc3)cc2-c2ccccc2)n1` (stereo unspecified), for which the TGI in assay [1] was greater than 100 µM; in assay [2], greater than 100 µM; in [6], greater than 100 µM; in [4], greater than 100 µM; in [7], 92.7 µM; in assay [5], greater than 100 µM.

As to `Cc1ccc(C(=O)/C=C/c2ccccc2Cl)cc1`, the TGI in [1] is 34.6 µM; in assay [2] it was 42.6 µM; in assay [6], 33.2 µM; in assay [3], 38.9 µM; in assay [4], 31 µM; in assay [7], 44.8 µM. In assay [5], the TGI worked out at 29.6 µM.

For the compound `N/C(=N\C(=S)N1CCCCC1)N1CCCCC1`, the TGI in assay [1], in assay [2], in assay [6], in assay [3], in assay [7] and in assay [5] was greater than 100 µM in each case.

In the case of `O=C(Nc1cc(C(F)(F)F)ccc1Cl)C(=O)C(C(=O)c1ccc2ccccc2c1)C1OC(=O)c2ccccc21` (stereo unspecified), the TGI in [1] was greater than 59.3 µM; in assay [2], 33.7 µM; in [6] it was 22.7 µM; in assay [3], 6.94 µM; in [4], greater than 50.7 µM; in [7], 21.7 µM. In [5], the TGI worked out at 24.8 µM.

In the case of `CC1CC(=O)C(C(O)CC2CC(=O)N(c3ccccc3)C(=O)C2)C(C)C1` (stereo unspecified), the TGI in [1], in [2], in assay [6], in assay [3], in [4] and in [7] was greater than 100 µM in each case. Further, the TGI in [5] was greater than 100 µM.

Take `O=C1CCC(=O)c2cc(Br)ccc2N1`: the TGI in [1], in assay [2], in assay [6], in [3], in assay [4] and in assay [7] was greater than 100 µM in each case. Besides, the TGI in assay [5] is greater than 100 µM.

For the compound `CN(C)CC1(C)CC/C(=C\c2ccc3c(c2)OCO3)C1=O` (stereo unspecified), the TGI in assay [1], in assay [2], in assay [6], in assay [3], in [4] and in [7] was greater than 100 µM each time. Moreover, the TGI in [5] is greater than 100 µM.

Regarding `CC(=O)O[C@H]1CCC2[C@@H]3CCC4C(=O)c5oncc5C[C@]4(C)C3CC[C@@]21C` (stereo partly specified), the TGI in assay [1], in assay [2], in assay [6], in assay [4], in [7] and in assay [5] was greater than 100 µM throughout.

As to `NC(C(=O)O)C(N)C(=O)O` (stereo unspecified), the TGI in assay [1], in assay [8], in assay [3], in assay [4], in assay [9] and in [5] was greater than 100 µM each time.

Regarding `O=C(O)C1Cc2nc[nH]c2CN1` (stereo unspecified), the TGI in assay [1], in [2], in assay [6], in [3], in [4] and in assay [7] was greater than 100 µM throughout. In assay [5], this compound showed a TGI greater than 100 µM.

As for `O=C(C#Cc1c[nH]c(=O)[nH]c1=O)c1ccccc1`, the TGI in [1] was 27.1 µM; in assay [2] it was 7.8 µM; in [6], 32.4 µM; in assay [3], 14.5 µM; in assay [4] it was 5.99 µM; in assay [7], 33.1 µM. The TGI in assay [5] is 22.4 µM.

For `COC1OC(C)C(OC(=O)C(C)(C)C)C(C)(O)C1O` (stereo unspecified), the TGI in [1], in [2], in assay [6], in [3], in assay [4] and in [5] was greater than 100 µM throughout.

Regarding `O=C1OC(=O)C2C3CCC(O3)C12` (stereo unspecified), the TGI in assay [2], in [6], in assay [3], in assay [4] and in [5] was greater than 100 µM throughout.

For the compound `Cc1ccc(NC(=O)SCCC(=O)O)cc1NC(=O)SCCC(=O)O`, the TGI in assay [1], in [2], in [6], in assay [3], in assay [4] and in [5] was greater than 100 µM throughout.

Take `COC(=O)/C(=C/N1CCN(C(=O)c2ccco2)C1=S)C(C)=O`: the GI50 in assay [1] was 17.4 µM; in assay [10], 4.51 µM; in assay [4] it was 2.67 µM; in [9], 22.2 µM; in assay [7], 21 µM; in assay [5] it was 27.8 µM. Moreover, the TGI in assay [1] was 42.9 µM; in assay [10] it was 36.6 µM; in [4], 11.6 µM; in assay [9], 56.8 µM; in assay [7], greater than 100 µM; in assay [5], 88.5 µM.

Regarding `CCCCCN(CCCCC)C(=O)[C@@H](CCC(=O)OCc1ccccc1)NC(=O)c1cc2ccccc2[nH]1`, the TGI in assay [1], in assay [2], in assay [6], in [3], in assay [4] and in [7] was greater than 100 µM throughout. The compound further registered a TGI in [5] greater than 100 µM.

Consider `COc1ccc(OC)c(CCc2cc(OC)c(OC)cc2C)c1`, for which the TGI in assay [1], in assay [2], in assay [6], in assay [4], in assay [7] and in assay [5] was greater than 100 µM throughout.

Source of the values: PubChem BioAssay (NCI).
